We go through 22 compounds from patent US9598423B2 (BRISTOL-MYERS SQUIBB COMPANY, priority 2013, dated 2017).

Usually IC50 stands for the concentration that inhibits the measured activity by half.

Experiment [1] has as its target CK1ε (Homo sapiens (Human), UniProt P49674). Put plainly: CK1ε kinase assay (Caliper LABCHIP electrophoretic separation of fluoresceinated peptide substrate and product). It counts as biochemical. The note with it: 200 pM CK1ε, 50 μM ATP, 1.5 μM peptide substrate, 22 hours at room temperature; read-out: CK1ε (IC50). The method, then:
(§1) CK1ε and CK1δ Kinase Assays
(§2) The kinase assay was performed in V-bottom 384-well plates. […] The reaction was incubated at room temperature for 22 hours and terminated by adding 45 μl of 35 mM EDTA to each sample. The reaction mixture was analyzed on the Caliper LABCHIP®3000 (Caliper, Hopkinton, Mass.) by electrophoretic separation of the unphosphorylated substrate and phosphorylated product. […] Compounds were dissolved at 10 mM in dimethylsulfoxide (DMSO) and evaluated at eleven concentrations. IC50 values were derived by non-linear regression analysis.

In experiment [2] the target is CK1δ (Homo sapiens (Human), UniProt P48730). Put plainly: CK1δ kinase assay (Caliper LABCHIP electrophoretic separation of fluoresceinated peptide substrate and product). It counts as biochemical. The note with it: 200 pM CK1δ, 50 μM ATP, 1.5 μM peptide substrate, 22 hours at room temperature; read-out: CK1δ (IC50). How it is done: as §1, §2
Chain of CK1δ (P48730 whole entry): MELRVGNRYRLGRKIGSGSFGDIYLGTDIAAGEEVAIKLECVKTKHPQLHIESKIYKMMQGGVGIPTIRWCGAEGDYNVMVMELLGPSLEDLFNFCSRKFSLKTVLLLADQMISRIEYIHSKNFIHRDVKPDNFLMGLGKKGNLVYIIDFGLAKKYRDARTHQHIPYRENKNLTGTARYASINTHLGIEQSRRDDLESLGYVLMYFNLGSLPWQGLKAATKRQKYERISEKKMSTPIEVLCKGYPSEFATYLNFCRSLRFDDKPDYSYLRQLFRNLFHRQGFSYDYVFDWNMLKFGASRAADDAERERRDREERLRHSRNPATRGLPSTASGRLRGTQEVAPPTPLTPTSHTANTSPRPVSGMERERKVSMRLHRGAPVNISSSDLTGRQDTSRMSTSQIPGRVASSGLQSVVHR

Chain of CK1ε (P49674 whole entry): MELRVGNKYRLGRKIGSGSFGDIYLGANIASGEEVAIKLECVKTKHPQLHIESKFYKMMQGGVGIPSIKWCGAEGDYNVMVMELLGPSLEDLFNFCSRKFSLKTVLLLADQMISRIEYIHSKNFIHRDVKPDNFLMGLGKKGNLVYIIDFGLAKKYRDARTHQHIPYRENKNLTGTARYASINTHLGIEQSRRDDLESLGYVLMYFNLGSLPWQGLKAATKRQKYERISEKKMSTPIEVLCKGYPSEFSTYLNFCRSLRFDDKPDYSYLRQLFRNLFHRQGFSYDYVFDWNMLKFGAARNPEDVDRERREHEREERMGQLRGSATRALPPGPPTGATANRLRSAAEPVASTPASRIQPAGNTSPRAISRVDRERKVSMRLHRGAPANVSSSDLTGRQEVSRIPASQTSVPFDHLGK

For `CC1Cn2nc(-c3ccc(F)c(Cl)c3)c(C(N)=O)c2CN1C(=O)Nc1ccc(C#N)cc1` (single isomer, unassigned) [Compound 329, 2-(3-Chloro-4-fluorophenyl)-N^5-(4-cyanophenyl)-6-methyl-6,7-dihydropyrazolo[1,5-a]pyrazine-3,5(4H)-dicarboxamide], the IC50 in experiment [1] and in experiment [2] was 0.01 to 10 nM throughout.
In the case of `CC1Cn2nc(-c3ccc(F)c(Cl)c3)c(C(N)=O)c2CN1C(=O)Nc1ccc(C#N)cc1` (single isomer, unassigned) [Compound 330, 2-(3-Chloro-4-fluorophenyl)-N^5-(4-cyanophenyl)-6-methyl-6,7-dihydropyrazolo[1,5-a]pyrazine-3,5(4H)-dicarboxamide], the 50% inhibitory concentration (IC50) in experiment [1] and in experiment [2] was 0.01 to 10 nM each time.
On to `CC1Cn2nc(-c3cccc(Cl)c3)c(C(N)=O)c2CN1C(=O)Nc1ccc(C#N)cc1` (single isomer, unassigned) [Compound 331, 2-(3-Chlorophenyl)-N^5-(4-cyanophenyl)-6-methyl-6,7-dihydropyrazolo[1,5-a]pyrazine-3,5(4H)-dicarboxamide], for which the IC50 in experiment [1] and in experiment [2] was 0.01 to 10 nM throughout.
`CC1Cn2nc(-c3cccc(Cl)c3)c(C(N)=O)c2CN1C(=O)Nc1ccc(C#N)cc1` (single isomer, unassigned) [Compound 332, 2-(3-Chlorophenyl)-N^5-(4-cyanophenyl)-6-methyl-6,7-dihydropyrazolo[1,5-a]pyrazine-3,5(4H)-dicarboxamide]: the IC50 in experiment [1] and in experiment [2] was 0.01 to 10 nM in each case.
As for `CC1Cn2nc(-c3ccc(Cl)c(Cl)c3)c(C(N)=O)c2CN1C(=O)Nc1ccc(C#N)cc1` (single isomer, unassigned) [Compound 333, N^5-(4-Cyanophenyl)-2-(3,4-dichlorophenyl)-6-methyl-6,7-dihydropyrazolo[1,5-a]pyrazine-3,5(4H)-dicarboxamide], the IC50 in experiment [1] and in experiment [2] was 0.01 to 10 nM throughout.
`CC1Cn2nc(-c3ccc(Cl)c(Cl)c3)c(C(N)=O)c2CN1C(=O)Nc1ccc(C#N)cc1` (single isomer, unassigned) [Compound 334, N^5-(4-Cyanophenyl)-2-(3,4-dichlorophenyl)-6-methyl-6,7-dihydropyrazolo[1,5-a]pyrazine-3,5(4H)-dicarboxamide]: the IC50 in experiment [1] and in experiment [2] was 0.01 to 10 nM throughout.
On to `N#Cc1ccc(NC(=O)N2Cc3c(C(N)=O)c(-c4ccc(F)c(Cl)c4)nn3CC2C(F)(F)F)cc1` (single isomer, unassigned) [Compound 335, 2-(3-Chloro-4-fluorophenyl)-N^5-(4-cyanophenyl)-6-(trifluoromethyl)-6,7-dihydropyrazolo[1,5-a]pyrazine-3,5(4H)-dicarboxamide], for which the IC50 in experiment [1] and in experiment [2] was 100 to 2000 nM in each case.
For the compound `N#Cc1ccc(NC(=O)N2Cc3c(C(N)=O)c(-c4ccc(F)c(Cl)c4)nn3CC2C(F)(F)F)cc1` (single isomer, unassigned) [Compound 336, 2-(3-Chloro-4-fluorophenyl)-N^5-(4-cyanophenyl)-6-(trifluoromethyl)-6,7-dihydropyrazolo[1,5-a]pyrazine-3,5(4H)-dicarboxamide], the IC50 in experiment [1] and in experiment [2] was 0.01 to 10 nM in each case.
As to `NC(=O)c1c(-c2cccc(F)c2)nn2c1CN(C(=O)Nc1cccnc1)CC2` [Compound 68, 2-(3-Fluorophenyl)-N^5-(pyridin-3-yl)-6,7-dihydropyrazolo[1,5-a]pyrazine-3,5(4H)-dicarboxamide], in experiment [2], the IC50 lay within 0.01 to 10 nM.
Same read-out and setting: as for `NC(=O)c1c(-c2cccc(F)c2)nn2c1CN(C(=O)Nc1cncnc1)CC2` [Compound 84, 2-(3-Fluorophenyl)-N^5-(pyrimidin-5-yl)-6,7-dihydropyrazolo[1,5-a]pyrazine-3,5(4H)-dicarboxamide], the figure is 0.01 to 10 nM.
The same measure, in the same setting: as for `Cc1ccc(NC(=O)N2CCn3nc(-c4cccc(F)c4)c(C(N)=O)c3C2)cn1` [Compound 86, 2-(3-Fluorophenyl)-N^5-(6-methylpyridin-3-yl)-6,7-dihydropyrazolo[1,5-a]pyrazine-3,5(4H)-dicarboxamide], the figure is 0.01 to 10 nM; as for `NC(=O)c1c(-c2cccc(F)c2)nn2c1CN(C(=O)Nc1ccc(F)nc1)CC2` [Compound 87, 2-(3-Fluorophenyl)-N^5-(6-fluoropyridin-3-yl)-6,7-dihydropyrazolo[1,5-a]pyrazine-3,5(4H)-dicarboxamide], 0.01 to 10 nM.
Take `NC(=O)c1c(-c2cccc(F)c2)nn2c1CN(C(=O)Nc1ccc(OC(F)F)cc1)CC2` [Compound 89, N^5-(4-(Difluoromethoxy)phenyl)-2-(3-fluorophenyl)-6,7-dihydropyrazolo[1,5-a]pyrazine-3,5(4H)-dicarboxamide]: the 50% inhibitory concentration (IC50) in experiment [2] is 0.01 to 10 nM.
With `NC(=O)c1c(-c2cccc(F)c2)nn2c1CN(C(=O)Nc1ccnc(Cl)c1)CC2` [Compound 90, N^5-(2-Chloropyridin-4-yl)-2-(3-fluorophenyl)-6,7-dihydropyrazolo[1,5-a]pyrazine-3,5(4H)-dicarboxamide], the IC50 in experiment [2] lay in the range of 0.01 to 10 nM.
On the same count and under the same terms, under `CC(=O)N1CCC(NC(=O)N2CCn3nc(-c4cccc(F)c4)c(C(N)=O)c3C2)CC1` [Compound 97] stands 0.01 to 10 nM; under `NC(=O)c1c(-c2cccc(F)c2)nn2c1CN(C(=O)NC1CCN(S(=O)(=O)C3CC3)CC1)CC2` [Compound 102, N^5-(1-(Cyclopropylsulfonyl)piperidin-4-yl)-2-(3-fluorophenyl)-6,7-dihydropyrazolo[1,5-a]pyrazine-3,5(4H)-dicarboxamide], 0.01 to 10 nM.
Same read-out and setting: under `CC(C)(C)NC(=O)N1CCn2nc(-c3cc(F)cc(F)c3)c(C(N)=O)c2C1` [Compound 105, N^5-(tert-Butyl)-2-(3,5-difluorophenyl)-6,7-dihydropyrazolo[1,5-a]pyrazine-3,5(4H)-dicarboxamide] stands 0.01 to 10 nM; under `COc1cc(F)cc(-c2nn3c(c2C(N)=O)CN(C(=O)NC(C)(C)C)CC3)c1` [Compound 137, N^5-(tert-Butyl)-2-(3-fiuoro-5-methoxyphenyl)-6,7-dihydropyrazolo[1,5-a]pyrazine-3,5(4H)-dicarboxamide], 0.01 to 10 nM; under `CSc1cccc(-c2nn3c(c2C(N)=O)CN(C(=O)NC(C)(C)C)CC3)c1` [Compound 150, N^5-(tert-Butyl)-2-(3-(methylthio)phenyl)-6,7-dihydropyrazolo[1,5-a]pyrazine-3,5(4H)-dicarboxamide], 0.01 to 10 nM.
On to `N#Cc1ccc(NC(=O)N2Cc3c(C(N)=O)c(-c4ccc(F)c(Cl)c4)nn3[C@H](C(F)F)C2)cc1Cl` [Compound A18, (S)—N^5-(3-Chloro-4-cyanophenyl)-2-(3-chloro-4-fluorophenyl)-7-(difluoromethyl)-6,7-dihydropyrazolo[1,5-a]pyrazine-3,5(4H)-dicarboxamide], for which, in experiment [2], the IC50 was 0.01 to 10 nM.
On to `N#Cc1ccc(NC(=O)N2Cc3c(C(N)=O)c(-c4ccc(F)c(Cl)c4)nn3C(C(F)F)C2)cc1Cl` (stereo not drawn) [Compound A19, N^5-(3-Chloro-4-cyanophenyl)-2-(3-chloro-4-fluorophenyl)-7-(difluoromethyl)-6,7-dihydropyrazolo[1,5-a]pyrazine-3,5(4H)-dicarboxamide], for which the IC50 in experiment [2] lay in the range of 0.01 to 10 nM.
On the same count and under the same terms, as for `N#Cc1ccc(NC(=O)N2Cc3c(C(N)=O)c(-c4ccc(F)c(Cl)c4)nn3[C@@H](C(F)F)C2)cc1F` [Compound A23, (R)-2-(3-Chloro-4-fluorophenyl)-N^5-(4-cyano-3-fluorophenyl)-7-(difluoromethyl)-6,7-dihydropyrazolo[1,5-a]pyrazine-3,5(4H)-dicarboxamide], the figure is 0.01 to 10 nM.
